Patent publication US11795152B2, “Crystal form of tafamidis and preparation method therefor and use thereof” (CRYSTAL PHARMACEUTICAL (SUZHOU) CO., LTD., priority 2019, dated 2023)
“Also recorded” adds a separate entry of the source. Blank lines part the entries; values can stand above or below the molecule they belong to.

Experiments:
Format in all cases: physicochemical
[1] = Grinding stability (XRPD before and after grinding); conditions: manually ground in the mortar for five minutes
From the text: A certain amount of Form CSV and WO2016038500 Form 1 were manually ground in the mortar for five minutes.

[2] = Compressibility (manual tablet press, tensile strength); conditions: 80 mg, φ6 mm round tooling, 10 KN; for Hardness: 24 hours recovery; for Tensile strength: T=2H/πDL*9.8
Procedure: An ENERPAC manual tablet press was used for tableting. […] Diameter (D) and thickness (L) were tested with a caliper. Hardness (H) was tested with an intelligent tablet hardness tester. Tensile strength of the powder was calculated with the following formula: T=2H/πDL*9.8. Under a certain force, the greater the tensile strength, the better the compressibility.
Diameter (D) and thickness (L) were tested with a caliper. Hardness (H) was tested with an intelligent tablet hardness tester. Tensile strength of the powder was calculated with the following formula: T=2H/πDL*9.8. Under a certain force, the greater the tensile strength, the better the compressibility.

[3] = Dissolution profile of capsules in pH6.8 PBS; conditions: capsule 61 mg, paddle 50 rpm, 37° C.
Procedure: The cumulative dissolution was measured at different time in pH6.8 PBS.

[4] = Dissolution profile of tablets in pH6.8 PBS+1% Tween 80; conditions: tablet 61 mg, paddle 75 rpm, 37° C.
Procedure: (§1) The cumulative dissolution was measured at different time in pH6.8 PBS+1% Tween 80 and pH6.8 PBS+3% Tween 80. The dissolution results are presented in Table 24 (FIG. 23) and Table 25 (FIG. 24).
The cumulative dissolution was measured at different time in pH6.8 PBS+1% Tween 80.

[5] = Dissolution profile of tablets in pH6.8 PBS+3% Tween 80; conditions: tablet 61 mg, paddle 75 rpm, 37° C.
Procedure: as §1

[6] = Adhesiveness (material sticking to the punch); conditions: 30 mg, φ8 mm round tooling, 10 KN held for 30 s
Procedure: The punch was weighed and amount of material sticking to the punch was calculated. The compression was repeated twice and the cumulative amount, maximum amount and average amount of material sticking to the punch during the compression were recorded.

[7] = Stability of drug substance on storage (XRPD, HPLC purity); conditions: for chemical purity during storage: drug substance
From the text: Crystalline form and chemical impurity were checked by XRPD and HPLC, respectively.
Crystalline form and purity were checked by XRPD and HPLC, respectively.

[8] = Hygroscopicity by dynamic vapor sorption (DVS); conditions: 80% RH; for Weight gain: 25° C., DVS; for hygroscopicity: pharmacopoeia definition
Procedure: Dynamic Vapor Sorption (DVS) is measured via a SMS (Surface Measurement Systems Ltd.) intrinsic DVS instrument. Its control software is DVS-Intrinsic control software. Typical parameters for DVS tests are as follows:
Gas and flow rate: N2, 200 mL/min
RH range: 0% RH to 95% RH
The weight gains at each relative humidity were recorded in a cycle of 0-95%-0 RH. The XRPD patterns were collected before and after the DVS test and depicted in FIG. 11.
Description and definition of hygroscopicity (general notice 9103 drug hygroscopicity test guidelines in 2015 edition of Chinese Pharmacopoeia, test at 25° C.+/−1° C., 80% RH. The definition of hygroscopicity in the 9th European Pharmacopoeia 5.11 is in consistent with the Chinese Pharmacopoeia.). • deliquescent: sufficient water is absorbed to form a solution. • very hygroscopic: increase in mass is equal to or greater than 15 percent. • hygroscopic: increase in mass is less than 15 percent and equal to or greater than 2 percent. • slightly hygroscopic: increase in mass is less than 2 percent and equal to or greater than 0.2 percent. • non hygroscopic or almost non hygroscopic: Increase in mass is less than 0.2%.
The weight gains at each relative humidity were recorded in a cycle of 0-95%-0RH. The XRPD patterns were collected before and after the DVS test and depicted in FIG. 22. […] Form CSVI is slightly hygroscopic.
The weight gains at each relative humidity were recorded in a cycle of 0-95%-0RH. The XRPD patterns were collected before and after the DVS test and depicted in FIG. 31.

[9] = Stability of Form CSV in drug product; conditions: for Purity % / Solid Form: drug product
From the text: X-ray powder diffraction patterns of drug product stability study in the present disclosure were acquired by a Bruker D8 Discover X-ray powder diffractometer. The parameters of the X-ray powder diffraction method of the present disclosure are as follows:
The XRPD patterns were collected before and after the formulation process.

[10] = Stability of crystalline form of Compound I in WO2019175263 in drug product formulation process; conditions: formulation of Table 34, stirring at room temperature
From the text: The crystalline form of Compound I in WO2019175263 was made into drug products according to the formulation and preparation process in Table 34 and Table 35. The XRPD patterns were collected before and after the formulation process. […] Form change occurred during stirring at room temperature.

[11] = 40° C./75% RH, Sealed, 6 months
[12] = 60° C./75% RH, Sealed, 2 months
[13] = 40° C./75% RH and 60° C./75% RH
[14] = double aluminum blister, 25° C./60% RH, 3 months
[15] = double aluminum blister, 40° C./75% RH, 3 months

crystallinity after grinding [1]: decreases | Hardness [2]: 2.32 kgf | Tensile strength [2]: 1.78 MPa | Cumulative drug release (%) ([3]; 0 min): 0.0% | Cumulative drug release (%) ([3]; 5 min): 14.0% | Cumulative drug release (%) ([3]; 10 min): 27.3% | Cumulative drug release (%) ([3]; 15 min): 29.1% | Cumulative drug release (%) ([3]; 20 min): 28.1% | Cumulative drug release (%) ([3]; 30 min): 27.6% | Cumulative drug release (%) ([3]; 45 min): 26.8% | Cumulative drug release (%) ([3]; 60 min): 21.8% | Cumulative drug release in pH 6.8 PBS + 1% Tween 80 (%) ([4]; 0 min): 0.0% | Cumulative drug release in pH 6.8 PBS + 1% Tween 80 (%) ([4]; 5 min): 4.0% | Cumulative drug release in pH 6.8 PBS + 1% Tween 80 (%) ([4]; 10 min): 10.4% | Cumulative drug release in pH 6.8 PBS + 1% Tween 80 (%) ([4]; 15 min): 15.6% | Cumulative drug release in pH 6.8 PBS + 1% Tween 80 (%) ([4]; 20 min): 19.5% | Cumulative drug release in pH 6.8 PBS + 1% Tween 80 (%) ([4]; 30 min): 25.7% | Cumulative drug release in pH 6.8 PBS + 1% Tween 80 (%) ([4]; 45 min): 33.0% | Cumulative drug release in pH 6.8 PBS + 1% Tween 80 (%) ([4]; 60 min): 38.4% | Cumulative drug release in pH 6.8 PBS + 1% Tween 80 (%) ([4]; 90 min): 46.8% | Cumulative drug release in pH 6.8 PBS + 1% Tween 80 (%) ([4]; 120 min): 53.3% | Cumulative drug release in pH 6.8 PBS + 1% Tween 80 (%) ([4]; 150 min): 61.4% | Cumulative drug release in pH 6.8 PBS + 3% Tween 80 (%) ([5]; 0 min): 0.0% | Cumulative drug release in pH 6.8 PBS + 3% Tween 80 (%) ([5]; 5 min): 22.7% | Cumulative drug release in pH 6.8 PBS + 3% Tween 80 (%) ([5]; 10 min): 33.1% | Cumulative drug release in pH 6.8 PBS + 3% Tween 80 (%) ([5]; 15 min): 39.7% | Cumulative drug release in pH 6.8 PBS + 3% Tween 80 (%) ([5]; 20 min): 45.0% | Cumulative drug release in pH 6.8 PBS + 3% Tween 80 (%) ([5]; 30 min): 52.5% | Cumulative drug release in pH 6.8 PBS + 3% Tween 80 (%) ([5]; 45 min): 60.5% | Cumulative drug release in pH 6.8 PBS + 3% Tween 80 (%) ([5]; 60 min): 65.9% | Cumulative drug release in pH 6.8 PBS + 3% Tween 80 (%) ([5]; 90 min): 73.0% | Cumulative drug release in pH 6.8 PBS + 3% Tween 80 (%) ([5]; 120 min): 77.2% | Average amount (mg) of material sticking to the punch [6]: 0.265 mg
SMILES: O=C(O)c1ccc2nc(-c3cc(Cl)cc(Cl)c3)oc2c1 [WO2016038500 Form 1, reference compound]

Purity ([7]; 25° C./60% RH, Open, 6 months): 99.96% | Solid Form ([7]; 25° C./60% RH, Open, 6 months): Form CSVI | Purity ([7]; 40° C./75% RH, Open, 6 months): 99.95% | Solid Form ([7]; 40° C./75% RH, Open, 6 months): Form CSVI | Purity [7, 11]: 99.95% | Solid Form [7, 11]: Form CSVI | Purity [7, 12]: 99.95% | Solid Form [7, 12]: Form CSVI | Purity ([7]; Initial): 99.95% | Solid Form ([7]; Initial): Form CSVI | chemical purity during storage ([7]; 25° C./60% RH): above 99.9% | chemical purity during storage [7, 13]: above 99.9% | Weight gain [8]: 0.21% | Cumulative drug release in pH 6.8 PBS + 1% Tween 80 (%) ([4]; 0 min): 0.0% | Cumulative drug release in pH 6.8 PBS + 1% Tween 80 (%) ([4]; 5 min): 19.1% | Cumulative drug release in pH 6.8 PBS + 1% Tween 80 (%) ([4]; 10 min): 28.3% | Cumulative drug release in pH 6.8 PBS + 1% Tween 80 (%) ([4]; 15 min): 34.7% | Cumulative drug release in pH 6.8 PBS + 1% Tween 80 (%) ([4]; 20 min): 39.8% | Cumulative drug release in pH 6.8 PBS + 1% Tween 80 (%) ([4]; 30 min): 47.4% | Cumulative drug release in pH 6.8 PBS + 1% Tween 80 (%) ([4]; 45 min): 56.0% | Cumulative drug release in pH 6.8 PBS + 1% Tween 80 (%) ([4]; 60 min): 62.1% | Cumulative drug release in pH 6.8 PBS + 1% Tween 80 (%) ([4]; 90 min): 70.4% | Cumulative drug release in pH 6.8 PBS + 1% Tween 80 (%) ([4]; 120 min): 75.7% | Cumulative drug release in pH 6.8 PBS + 1% Tween 80 (%) ([4]; 150 min): 80.7% | Cumulative drug release in pH 6.8 PBS + 3% Tween 80 (%) ([5]; 0 min): 0.0% | Cumulative drug release in pH 6.8 PBS + 3% Tween 80 (%) ([5]; 5 min): 27.0% | Cumulative drug release in pH 6.8 PBS + 3% Tween 80 (%) ([5]; 10 min): 38.2% | Cumulative drug release in pH 6.8 PBS + 3% Tween 80 (%) ([5]; 15 min): 46.4% | Cumulative drug release in pH 6.8 PBS + 3% Tween 80 (%) ([5]; 20 min): 51.9% | Cumulative drug release in pH 6.8 PBS + 3% Tween 80 (%) ([5]; 30 min): 60.4% | Cumulative drug release in pH 6.8 PBS + 3% Tween 80 (%) ([5]; 45 min): 68.5% | Cumulative drug release in pH 6.8 PBS + 3% Tween 80 (%) ([5]; 60 min): 73.8% | Cumulative drug release in pH 6.8 PBS + 3% Tween 80 (%) ([5]; 90 min): 79.2% | Cumulative drug release in pH 6.8 PBS + 3% Tween 80 (%) ([5]; 120 min): 81.9%
SMILES: O=C(O)CCCC(=O)O.O=C(O)c1ccc2nc(-c3cc(Cl)cc(Cl)c3)oc2c1.O=C(O)c1ccc2nc(-c3cc(Cl)cc(Cl)c3)oc2c1 [Form CSVI]
hygroscopicity [8]: slightly hygroscopic (increase in mass is less than 2 percent and equal to or greater than 0.2 percent)

Purity ([7]; 25° C./60% RH, Open, 6 months): 99.96% | Solid Form ([7]; 25° C./60% RH, Open, 6 months): Form CSV | Purity ([7]; 40° C./75% RH, Open, 6 months): 99.96% | Solid Form ([7]; 40° C./75% RH, Open, 6 months): Form CSV | Purity [7, 11]: 99.96% | Solid Form [7, 11]: Form CSV | Purity ([7]; 60° C./75% RH, Open, 2 months): 99.94% | Solid Form ([7]; 60° C./75% RH, Open, 2 months): Form CSV | Purity [7, 12]: 99.94% | Solid Form [7, 12]: Form CSV | Purity ([7]; Initial): 99.96% | Solid Form ([7]; Initial): Form CSV | chemical purity during storage ([7]; 25° C./60% RH): above 99.9% | chemical purity during storage [7, 13]: above 99.9% | crystallinity after grinding [1]: keeps substantially unchanged | Hardness [2]: 4.85 kgf | Tensile strength [2]: 2.86 MPa | Weight gain [8]: 0.09% | Purity % ([9]; Initial): 99.84% | Solid Form ([9]; Initial): Form CSV | Purity % [9, 14]: 99.87% | Solid Form [9, 14]: Form CSV | Purity % [9, 15]: 99.86% | Solid Form [9, 15]: Form CSV | stability in the formulation process (XRPD before and after) ([9]; formulation of Table 10, process of Table 11): stable in the formulation process | Cumulative drug release (%) ([3]; 0 min): 0.0% | Cumulative drug release (%) ([3]; 5 min): 6.6% | Cumulative drug release (%) ([3]; 10 min): 67.6% | Cumulative drug release (%) ([3]; 15 min): 82.8% | Cumulative drug release (%) ([3]; 20 min): 88.4% | Cumulative drug release (%) ([3]; 30 min): 89.1% | Cumulative drug release (%) ([3]; 45 min): 87.4% | Cumulative drug release (%) ([3]; 60 min): 86.4%
SMILES: O=C(O)/C=C/C(=O)O.O=C(O)c1ccc2nc(-c3cc(Cl)cc(Cl)c3)oc2c1.O=C(O)c1ccc2nc(-c3cc(Cl)cc(Cl)c3)oc2c1 [Form CSV]
hygroscopicity [8]: non hygroscopic or almost non-hygroscopic; also recorded: non-hygroscopic or almost non-hygroscopic

stability in the formulation process (XRPD before and after) [10]: unstable in the formulation process
SMILES: O=C(O)c1ccc2nc(-c3cc(Cl)cc(Cl)c3)oc2c1
